Key:
[1] = target: T1, O^6-alkylguanine-DNA alkyltransferase (AGT) (Homo sapiens, UniProt P16455); test: AGT inactivation in intact HT29 cells; settings: for ratio of ED50 values in cell-free extracts/intact cells: HT29; for AGT inactivating activity in intact HT29 cells, in words: comparison
T1 sequence (P16455 1-207): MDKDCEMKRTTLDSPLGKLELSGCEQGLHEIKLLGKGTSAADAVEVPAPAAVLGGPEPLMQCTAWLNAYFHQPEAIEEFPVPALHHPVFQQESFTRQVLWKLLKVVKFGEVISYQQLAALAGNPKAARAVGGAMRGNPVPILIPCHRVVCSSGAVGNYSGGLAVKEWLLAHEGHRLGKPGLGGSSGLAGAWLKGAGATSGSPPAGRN
Protocol: (§1) The data represent the dose of compound required to produce 50% inactivation in cell-free extracts upon incubation for 30 min or in cells upon incubation for 4 hr.

[2] = target: T1, O^6-alkylguanine-DNA alkyltransferase (AGT); test: AGT inactivation in HT29 cell-free extract; settings: for AGT inactivating activity in HT29 cell-free extracts, in words: comparison
Protocol: as §1

[3] = tested on: DU-145 prostate cancer cells; test: Killing of DU-145 prostate cancer cells by BCNU combined with AGT inactivators (colony formation)
Protocol: (§2) Cells were treated for 2 h with AGT inactivator prior to exposure to BCNU.

HT-29 colon cancer cells = test: Killing of HT-29 colon cancer cells by BCNU combined with AGT inactivators (colony formation); settings: for Colony Formation per 1000 cells: HT-29
Protocol: as §2

[4] = tested on: MCF-71 breast cancer cells; test: Killing of MCF-71 breast cancer cells by BCNU combined with AGT inactivators (colony formation)
Protocol: as §2

[5] = BCNU 40 μM, statement covers HT29, DU-145 and MCF-71 cells (Tables 3-5)

`Nc1nc(N)c(Br)c(OCc2ccccc2)n1` [Compound 3f, 2,4-Diamino-6-benzyloxy-5-bromopyrimidine] was tested, and the EC50 [1] was 800 nM, the EC50 [2] was 2000 nM and the “AGT inactivating activity in HT29 cell-free extracts, in words” value [2] was “considerably more active than 3b”.

Compound `CC(=O)Nc1nc(OCc2ccccc2)c2[nH]c(=O)[nH]c2n1` [Compound 4d, N^2-Acetyl-O^6-benzyl-8-oxoguanine] has an EC50 [1] of 11000 nM and an EC50 [2] of 65000 nM.

Work on `CNc1nc(OCc2ccccc2)c2nc[nH]c2n1` [Compound 4e, O^6-Benzyl-N^2-methylguanine] yielded an EC50 [1] of 60000 nM and an EC50 [2] of 160000 nM.

Compound `O=c1nc(OCc2ccccc2)c2[nH]cnc2[nH]1` [Compound 4a, O^6-Benzylxanthine] has an EC50 [1] of 35000 nM and an EC50 [2] of 60000 nM.

In the case of `Nc1nc(OCc2ccccc2)c2[nH]c(=O)[nH]c2n1` [Compound 1c, O^6-Benzyl-8-oxoguanine], the EC50 [1] is reported as 150 nM, the “Colony Formation per 1000 cells” value ([3]; inactivator 1 μM, BCNU 40 μM) is reported as 329 ± 43 per 1000 cells and the “Colony Formation per 1000 cells” value ([3]; inactivator 10 μM, BCNU 40 μM) is reported as 34 ± 3 per 1000 cells. For the same compound, the “Colony Formation per 1000 cells” value ([3]; inactivator 10 μM, BCNU none) was 379 ± 34 per 1000 cells, the EC50 [2] was 300 nM and the “Colony Formation per 1000 cells” value (HT-29 colon cancer cells; inactivator 1 μM, BCNU 40 μM) was 221 ± 15 per 1000 cells. For the same compound, the “Colony Formation per 1000 cells” value (HT-29 colon cancer cells; inactivator 10 μM, BCNU 40 μM) was <1 per 1000 cells, the “Colony Formation per 1000 cells” value (HT-29 colon cancer cells; inactivator 10 μM, BCNU none) was 401 ± 22 per 1000 cells and the “Colony Formation per 1000 cells” value ([4]; inactivator 10 μM, BCNU 40 μM) was 4 ± 2 per 1000 cells. For the same compound, the “Colony Formation per 1000 cells” value ([4]; inactivator 10 μM, BCNU none) was 522 ± 78 per 1000 cells.

`Nc1nc(N)nc(OCc2ccccc2)n1` [Compound 6, 2,4-Diamino-6-benzyloxy-s-triazine] was tested, and the EC50 [1] was 1000 nM, the EC50 [2] was 4000 nM and the “AGT inactivating activity in HT29 cell-free extracts, in words” value [2] was “considerably more active than 3b”.

For `Cc1nc2c(OCc3ccccc3)nc(N)nc2[nH]1` [Compound 1b, O^6-benzyl-8-methylguanine], the EC50 [1] was 100 nM, the “Colony Formation per 1000 cells” value ([3]; inactivator 1 μM, BCNU 40 μM) was 306 ± 157 per 1000 cells and the “Colony Formation per 1000 cells” value ([3]; inactivator 10 μM, BCNU 40 μM) was 50 ± 7 per 1000 cells. For the same compound, the “Colony Formation per 1000 cells” value ([3]; inactivator 10 μM, BCNU none) was 357 ± 43 per 1000 cells, the EC50 [2] was 300 nM and the “Colony Formation per 1000 cells” value (HT-29 colon cancer cells; inactivator 1 μM, BCNU 40 μM) was 230 ± 51 per 1000 cells. For the same compound, the “Colony Formation per 1000 cells” value (HT-29 colon cancer cells; inactivator 10 μM, BCNU 40 μM) was <1 per 1000 cells, the “Colony Formation per 1000 cells” value (HT-29 colon cancer cells; inactivator 10 μM, BCNU none) was 513 ± 76 per 1000 cells and the “Colony Formation per 1000 cells” value ([4]; inactivator 10 μM, BCNU 40 μM) was 2 ± 1 per 1000 cells. The “Colony Formation per 1000 cells” value ([4]; inactivator 10 μM, BCNU none) was 376 ± 76 per 1000 cells.

`Nc1cc(OCc2ccccc2)nc(N)n1` [Compound 3b, 2,4-diamino-6-benzyloxypyrimidine] gave an EC50 [1] of 5000 nM and an EC50 [2] of 15000 nM.

For `Cn1c(Br)nc2c(OCc3ccccc3)nc(N)nc21` [Compound 10a, O^6-Benzyl-8-bromo-9-methylguanine], the EC50 [1] was 250 nM, the “ratio of ED50 values in cell-free extracts/intact cells” value [1] was 7.2 and the “AGT inactivating activity in intact HT29 cells, in words” value [1] was “significantly higher than their activity in cell-free extracts”. The EC50 [2] was 1900 nM.

For `CN(C)c1nc(OCc2ccccc2)c2nc[nH]c2n1` [Compound 4f, O^6-Benzyl-N^2,N^2-dimethylguanine], the EC50 [1] was 110000 nM and the EC50 [2] was 200000 nM.

For `Cc1nc(N)nc(OCc2ccccc2)c1[N+](=O)[O-]` [Compound 5b, 2-Amino-4-benzyloxy-6-methyl-5-nitropyrimidine], the EC50 [1] was 60 nM, the “AGT inactivating activity in intact HT29 cells, in words” value [1] was “quite active in cells” and the EC50 [2] was 400 nM.

`Nc1ncnc(OCc2ccccc2)c1[N+](=O)[O-]` [Compound 3a, 4-Amino-6-benzyloxy-5-nitropyrimidine] showed an EC50 [1] of 8000 nM and an EC50 [2] of 28000 nM.

`Fc1nc(OCc2ccccc2)c2nc[nH]c2n1` [Compound 4c, O^6-benzyl-2-fluorohypoxanthine] gave an EC50 [1] of 12000 nM and an EC50 [2] of 48000 nM.

With `Nc1nc(OCc2ccccc2)c2nc(N)[nH]c2n1` [Compound 1a, 8-Amino-O^6-benzylguanine] the EC50 [1] was 2000 nM, the “Colony Formation per 1000 cells” value ([3]; inactivator 1 μM, BCNU 40 μM) was 295 ± 45 per 1000 cells and the “Colony Formation per 1000 cells” value ([3]; inactivator 10 μM, BCNU 40 μM) was 435 ± 70 per 1000 cells. The “Colony Formation per 1000 cells” value ([3]; inactivator 10 μM, BCNU none) was 380 ± 36 per 1000 cells, the EC50 [2] was 700 nM and the “enhancement of BCNU cytotoxicity, in words” value (“enhancement” below) (HT-29 colon cancer cells; [5]) was “comparatively low activity”. For the same compound, the “Colony Formation per 1000 cells” value (HT-29 colon cancer cells; inactivator 1 μM, BCNU 40 μM) was 475 ± 26 per 1000 cells, the “Colony Formation per 1000 cells” value (HT-29 colon cancer cells; inactivator 10 μM, BCNU 40 μM) was 430 ± 41 per 1000 cells and the “Colony Formation per 1000 cells” value (HT-29 colon cancer cells; inactivator 10 μM, BCNU none) was 504 ± 30 per 1000 cells. For the same compound, the “Colony Formation per 1000 cells” value ([4]; inactivator 10 μM, BCNU 40 μM) was 95 ± 8 per 1000 cells and the “Colony Formation per 1000 cells” value ([4]; inactivator 10 μM, BCNU none) was 432 ± 36 per 1000 cells.

`Nc1nc(OCc2ccccc2)c2nc(Br)[nH]c2n1` [Compound 1d, O^6-Benzyl-8-bromoguanine] was tested, and the EC50 [1] was 60 nM, the “ratio of ED50 values in cell-free extracts/intact cells” value [1] was 1.6 and the “AGT inactivating activity in intact HT29 cells, in words” value [1] was “somewhat less active in cells than expected”. For the same compound, the “Colony Formation per 1000 cells” value ([3]; inactivator 1 μM, BCNU 40 μM) was 267 ± 39 per 1000 cells, the “Colony Formation per 1000 cells” value ([3]; inactivator 10 μM, BCNU 40 μM) was 16 ± 3 per 1000 cells and the “Colony Formation per 1000 cells” value ([3]; inactivator 10 μM, BCNU none) was 493 ± 90 per 1000 cells. The EC50 [2] was 80 nM, the “AGT inactivating activity in HT29 cell-free extracts, in words” value [2] was “essentially as active as pyrimidines 3d and 3e” and the “Colony Formation per 1000 cells” value (HT-29 colon cancer cells; inactivator 1 μM, BCNU 40 μM) was 299 ± 30 per 1000 cells. For the same compound, the “Colony Formation per 1000 cells” value (HT-29 colon cancer cells; inactivator 10 μM, BCNU 40 μM) was 1 ± 0 per 1000 cells, the “Colony Formation per 1000 cells” value (HT-29 colon cancer cells; inactivator 10 μM, BCNU none) was 401 ± 22 per 1000 cells and the “Colony Formation per 1000 cells” value ([4]; inactivator 10 μM, BCNU 40 μM) was 3 ± 1 per 1000 cells. The “Colony Formation per 1000 cells” value ([4]; inactivator 10 μM, BCNU none) was 380 ± 109 per 1000 cells and the “Colony Formation per 1000 cells” value ([4]; inactivator […], BCNU 40 μM) was 4 ± 3 per 1000 cells.

For `Cn1nnc2c(OCc3ccccc3)nc(N)nc21` [Compound 8a, 8-Aza-O^6-benzyl-9-methylguanine], the EC50 [1] was 80 nM, the “ratio of ED50 values in cell-free extracts/intact cells” value [1] was 6.3 and the “AGT inactivating activity in intact HT29 cells, in words” value [1] was “significantly higher than their activity in cell-free extracts”. It also gave an EC50 [2] of 500 nM.

In the case of `Nc1nc(N)c([N+](=O)[O-])c(OCc2ccccc2)n1` [Compound 3e, 2,4-diamino-6-benzyloxy-5-nitropyrimidine], the “Colony Formation per 1000 cells” value ([3]; inactivator 1 μM, BCNU 40 μM) is reported as 59 ± 6 per 1000 cells, the “enhancement” value (HT-29 colon cancer cells; [5]) is reported as “similarly effective at a 4-fold lower dose” and the “Colony Formation per 1000 cells” value (HT-29 colon cancer cells; inactivator 1 μM, BCNU 40 μM) is reported as 45 ± 4 per 1000 cells. For the same compound, the “Colony Formation per 1000 cells” value (HT-29 colon cancer cells; inactivator […], BCNU 40 μM) was <1 per 1000 cells and the “Colony Formation per 1000 cells” value ([4]; inactivator […], BCNU 40 μM) was 2 ± 1 per 1000 cells.

Work on `O=c1nc(OCc2ccccc2)c2[nH]c(=O)[nH]c2[nH]1` [Compound 4b, O^6-Benzyluric acid] yielded an EC50 [1] of 45000 nM and an EC50 [2] of 25000 nM.

In the case of `Nc1nc(N)c(N)c(OCc2ccccc2)n1` [Compound 3c, 2,4,5-triamino-6-benzyloxypyrimidine], the EC50 [1] is reported as 300 nM, the “Colony Formation per 1000 cells” value ([3]; inactivator 1 μM, BCNU 40 μM) is reported as 378 ± 60 per 1000 cells and the “Colony Formation per 1000 cells” value ([3]; inactivator 10 μM, BCNU 40 μM) is reported as 57 ± 7 per 1000 cells. For the same compound, the “Colony Formation per 1000 cells” value ([3]; inactivator 10 μM, BCNU none) was 429 ± 101 per 1000 cells, the EC50 [2] was 400 nM and the “enhancement” value (HT-29 colon cancer cells; [5]) was “as effective as the 8-substituted O^6-bezylguanine derivatives and O^6-benzylguanine itself”. For the same compound, the “Colony Formation per 1000 cells” value (HT-29 colon cancer cells; inactivator 1 μM, BCNU 40 μM) was 487 ± 32 per 1000 cells, the “Colony Formation per 1000 cells” value (HT-29 colon cancer cells; inactivator 10 μM, BCNU 40 μM) was 3 ± 1 per 1000 cells and the “Colony Formation per 1000 cells” value (HT-29 colon cancer cells; inactivator 10 μM, BCNU none) was 453 ± 59 per 1000 cells. For the same compound, the “Colony Formation per 1000 cells” value ([4]; inactivator 10 μM, BCNU 40 μM) was 12 ± 4 per 1000 cells and the “Colony Formation per 1000 cells” value ([4]; inactivator 10 μM, BCNU none) was 448 ± 55 per 1000 cells.

In the case of `Nc1ncc([N+](=O)[O-])c(OCc2ccccc2)n1` [Compound 5a, 2-Amino-4-benzyloxy-5-nitropyrimidine], the EC50 [1] is reported as 50 nM, the “AGT inactivating activity in intact HT29 cells, in words” value [1] is reported as “quite active in cells” and the EC50 [2] is reported as 400 nM. The “AGT inactivating activity in HT29 cell-free extracts, in words” value [2] was “much more active than 3a”.

For `O=NN(CCCl)C(=O)NCCCl` [BCNU, 1,3-bis(2-chloroethyl)-1-nitrosourea, reference compound], the “Colony Formation per 1000 cells” value ([3]; no inactivator, BCNU 40 μM) was 394 ± 76 per 1000 cells, the “Colony Formation per 1000 cells” value (HT-29 colon cancer cells; no inactivator, BCNU 40 μM) was 442 ± 34 per 1000 cells and the “effect of agent alone on cell colony number, in words” value (HT-29 colon cancer cells; statement covers HT29, DU-145 and MCF-71 cells (Tables 3-5)) was “no significant effect on cell colony number”. For the same compound, the “Colony Formation per 1000 cells” value ([4]; no inactivator, BCNU 40 μM) was 364 ± 60 per 1000 cells.
